Consider 10 compounds from patent publication US20140005163A1 (NOVARTIS AG, priority 2010, published 2014).

Values after ≈ are worked out from the molar mass of the structure shown.

For one series, the target named is T1, PI3K alpha (Homo sapiens, UniProt P42336).
T1 construct: p85(iSH2) fusion partner (see partner chain) (N); His tag (C); made in house; host or cells: baculovirus; Tn5 (Trichoplusia ni) or TiniPro insect cells
In words: PI3K alpha kinase assay (Kinase-Glo luminescence). Type of series: biochemical. The gist of the method: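 PI3Kα construct EMV B1075 (10 nM final) was preincubated with 10 μg/mL phosphatidylinositol in 10 mM Tris-HCl pH 7.5, 3 mM MgCl2, 50 mM NaCl, 0.05% CHAPS, 1 mM DTT. Reaction started with 1 μM ATP, 60 min at room temperature; remaining ATP measured by Kinase-Glo luminescence. IC50 from 4-parameter logistic fit of 8-point titrations.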

The next series concerns the target T2, PI3K delta (Homo sapiens, UniProt O00329).
T2 construct: for the full-length p110-d subunit are generated and fused by overlapping PCR; p85(iSH2) fusion partner (see partner chain) (N); His tag (C); made in house; host or cells: baculovirus; Tn5 (Trichoplusia ni) or TiniPro insect cells
In words: PI3K delta kinase assay (Kinase-Glo luminescence). The series is classed as biochemical. An outline of the steps: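 Recombinant p85(iSH2)-Gly linker-p110δ full-length construct (BV1060, C-terminal His tag) was used at 10 nM with 10 μg/mL phosphatidylinositol and 1 μM ATP in 10 mM Tris-HCl pH 7.5, 3 mM MgCl2, 50 mM NaCl, 0.05% CHAPS, 1 mM DTT. After 60 min at room temperature, remaining ATP was measured by Kinase-Glo luminescence.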
Background: Kinase-Glo reads ATP consumption through a luciferase reaction.

The target of a further series is T3, PI3K gamma (Homo sapiens, UniProt P48736).
T3 construct: His tag (C); made in house; host or cells: baculovirus (pVL1393); Tn5 or TiniPro insect cells; construct from Roger Williams lab, MRC LMB
T3 sequence (P48736 144-1102 limits assumed): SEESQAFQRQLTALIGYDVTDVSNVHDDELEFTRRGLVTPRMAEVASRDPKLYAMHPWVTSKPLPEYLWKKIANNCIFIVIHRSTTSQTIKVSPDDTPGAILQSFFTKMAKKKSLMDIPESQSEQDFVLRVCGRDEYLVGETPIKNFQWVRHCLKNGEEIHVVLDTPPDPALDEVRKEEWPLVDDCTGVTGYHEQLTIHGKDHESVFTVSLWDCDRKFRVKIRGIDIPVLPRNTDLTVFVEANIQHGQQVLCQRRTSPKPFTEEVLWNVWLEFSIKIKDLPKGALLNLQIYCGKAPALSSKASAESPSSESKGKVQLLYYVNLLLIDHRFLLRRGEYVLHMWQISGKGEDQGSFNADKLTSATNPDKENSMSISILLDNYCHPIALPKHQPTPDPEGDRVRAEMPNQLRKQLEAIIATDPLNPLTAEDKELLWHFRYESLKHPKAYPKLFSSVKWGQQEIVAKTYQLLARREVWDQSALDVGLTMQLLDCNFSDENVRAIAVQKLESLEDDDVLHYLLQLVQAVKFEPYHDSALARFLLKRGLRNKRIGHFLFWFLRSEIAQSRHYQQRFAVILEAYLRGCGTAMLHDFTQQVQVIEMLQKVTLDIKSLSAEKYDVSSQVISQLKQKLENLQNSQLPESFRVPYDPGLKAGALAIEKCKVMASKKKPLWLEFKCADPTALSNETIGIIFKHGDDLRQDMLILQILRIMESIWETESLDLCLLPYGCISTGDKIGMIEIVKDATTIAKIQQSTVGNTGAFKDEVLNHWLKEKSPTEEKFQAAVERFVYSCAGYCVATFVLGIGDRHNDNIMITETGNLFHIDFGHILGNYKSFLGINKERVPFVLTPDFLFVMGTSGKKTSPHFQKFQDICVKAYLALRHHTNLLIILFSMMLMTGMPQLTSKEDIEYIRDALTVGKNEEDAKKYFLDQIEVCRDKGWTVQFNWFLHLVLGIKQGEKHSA
In words: PI3K gamma kinase assay (Kinase-Glo luminescence). Type of series: biochemical. The protocol:
In a more preferred assay, the kinase reaction is performed in a final volume of 10 μL per well of a low volume non binding CORNING, 384 well black plate (Cat. No. #3676). The final concentrations of ATP and phosphatidyl inositol (PI) in the assay are 1 μM and 10 μg/mL respectively. The reaction is started by the addition of ATP.
The components of the assay are added per well as follows:
[…] in 90% DMSO per well, in columns 1-20, 8 concentrations (1/3 and 1/3.33 serial dilution step) in single. • Low control: […] of 90% DMSO in half the wells of columns 23-24 (0.45% in final). • High control: […] of reference compound (e.g. compound of Example 7 in WO 2006/122806) in the other half of columns 23-24 (2.5 μM in final). • Standard: […] of reference compound as just mentioned diluted as the test compounds in columns 21-22 • 20 mL ‘buffer’ are prepared per assay: • 200 μL of 1M TRIS HCl pH7.5 (10 mM in final) • 60 μL of 1M MgCl2 (3 mM in final) • 500 μL of 2M NaCl (50 mM in final) • 100 μL of 10% CHAPS (0.05% in final) • 200 μL of 100 mM DTT (1 mM in final) • 18.94 mL of nanopure water • 10 mL ‘PI’ are prepared per assay: • 200 μL of 1 mg/ml L-alpha-Phosphatidylinositol (Liver Bovine, Avanti Polar Lipids Cat. No. 840042C MW=909.12) prepared in 3% OctylGlucoside (10 μg/ml in final) • 9.8 mL of ‘buffer’ • 10 mL ‘ATP’ are prepared per assay: • 6.7 μL of 3 mM stock of ATP giving a final concentration of 1 μM per well • 10 mL of ‘buffer’ • 2.5 mL of each PI3K construct are prepared per assay in ‘PI’ with the following final concentration: • 10 nM PI3K alfa EMV B1075 • 25 nM beta EMV BV949 • 10 nM delta EMV BV1060 • 150 nM gamma EMV BV950 • 5 μL of ‘PI/PI3K’ are added per well. • 5 μl ‘ATP’ are added per well to start the reaction. • The plates are then incubated at room temperature for 60 minutes (alfa, beta, delta) or 120 minutes (gamma). • The reaction is terminated by the addition of 10 μL Kinase-Glo (Promega Cat. No. #6714). • The assay plates are read after 10 minutes in Synergy 2 reader (BioTek, Vermont USA) with an integration time of 100 milliseconds and sensitivity set to 191. • Output: The High control is around 60'000 counts and the Low control is 30'000 or lower • This luminescence assay gives a useful Z′ ratio between 0.4 and 0.7
IC50 is determined by a four parameter curve fitting routine that comes along with “excel fit”. […] Alternatively, IC50 values are calculated using idbsXLfit model 204, which is a 4 parameter logistic model.

The subject of series [1] is PKB Ser473 phosphorylation in Rat1-myr-HA-p110 alpha cells. In words: Reverse protein array assay, PKB Ser473 phosphorylation in Rat1-myr-p110 alpha cells. Type of series: cell-based. To be noted: 0.5 h, pAkt Ser473, 30 minutes compound incubation, read-out: p-PKB IC50. An outline of the steps: (§1)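 Measured: PKB Ser473 phosphorylation by reverse protein array in Rat1 cells expressing myr-HA-p110 alpha, beta or delta, after 30 min compound treatment at 37 °C with 0.2% DMSO vehicle.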

In series [2] the test system is PKB Ser473 phosphorylation in Rat1-myr-HA-p110 beta cells. Put plainly: Reverse protein array assay, PKB Ser473 phosphorylation in Rat1-myr-p110 beta cells. Type of series: cell-based. To be noted: 0.5 h, pAkt Ser473, 30 minutes incubation, read-out: p-PKB IC50. The gist of the method: as §1
For series [3], the system named is PKB Ser473 phosphorylation in Rat1-myr-HA-p110 delta cells. Put plainly: Reverse protein array assay, PKB Ser473 phosphorylation in Rat1-myr-p110 delta cells. Type of series: cell-based. The conditions noted are these: read-out: p-PKB IC50. An outline of the steps:
as §1

The target in a further series is T4, PI3K beta (Homo sapiens, UniProt P42338).
T4 construct: for the full-length p110-b subunit are generated and fused by overlapping PCR; p85(iSH2) fusion partner (see partner chain) (N); His tag (C); made in house; host or cells: baculovirus; Tn5 (Trichoplusia ni) or TiniPro insect cells
T4 sequence (P42338 with tags, fused parts or gaps limits assumed): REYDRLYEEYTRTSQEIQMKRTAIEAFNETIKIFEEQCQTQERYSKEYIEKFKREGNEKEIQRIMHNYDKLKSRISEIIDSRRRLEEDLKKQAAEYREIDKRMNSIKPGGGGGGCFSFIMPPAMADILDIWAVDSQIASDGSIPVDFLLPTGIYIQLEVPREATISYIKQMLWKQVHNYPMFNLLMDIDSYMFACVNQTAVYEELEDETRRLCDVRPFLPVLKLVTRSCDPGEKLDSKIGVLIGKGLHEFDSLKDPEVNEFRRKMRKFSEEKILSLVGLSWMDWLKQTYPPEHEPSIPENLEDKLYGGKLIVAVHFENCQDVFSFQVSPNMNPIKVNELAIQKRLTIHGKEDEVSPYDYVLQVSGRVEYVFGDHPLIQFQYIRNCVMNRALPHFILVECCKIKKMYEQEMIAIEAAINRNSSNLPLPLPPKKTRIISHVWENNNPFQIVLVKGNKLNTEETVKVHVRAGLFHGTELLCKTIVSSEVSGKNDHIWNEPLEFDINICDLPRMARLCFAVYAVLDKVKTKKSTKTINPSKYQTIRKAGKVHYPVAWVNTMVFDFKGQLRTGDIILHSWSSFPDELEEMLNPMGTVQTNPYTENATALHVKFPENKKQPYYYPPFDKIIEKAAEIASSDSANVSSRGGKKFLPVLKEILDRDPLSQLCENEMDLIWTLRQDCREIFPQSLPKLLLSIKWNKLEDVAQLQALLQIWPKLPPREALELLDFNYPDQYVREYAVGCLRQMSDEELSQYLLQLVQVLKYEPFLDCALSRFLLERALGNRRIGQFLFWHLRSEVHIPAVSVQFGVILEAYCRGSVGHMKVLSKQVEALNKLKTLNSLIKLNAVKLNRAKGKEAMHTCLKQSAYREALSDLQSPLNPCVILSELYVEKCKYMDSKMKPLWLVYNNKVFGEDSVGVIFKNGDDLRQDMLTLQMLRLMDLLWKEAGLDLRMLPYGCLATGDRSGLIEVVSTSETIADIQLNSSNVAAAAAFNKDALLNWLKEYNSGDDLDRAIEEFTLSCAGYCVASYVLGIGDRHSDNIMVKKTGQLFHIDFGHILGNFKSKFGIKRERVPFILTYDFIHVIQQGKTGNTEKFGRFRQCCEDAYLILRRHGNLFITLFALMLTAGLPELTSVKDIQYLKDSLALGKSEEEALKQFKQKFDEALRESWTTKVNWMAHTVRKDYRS
In words: PI3K beta kinase assay (Kinase-Glo luminescence). Type of series: biochemical. The gist of the method:
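Enzyme: BV949 p85(iSH2)-Gly linker-p110β FL-His, 25 nM. Substrate: PI 10 μg/mL. ATP: 1 μM, added to start. Buffer: Tris pH 7.5 10 mM, MgCl2 3 mM, NaCl 50 mM, CHAPS 0.05%, DTT 1 mM. RT, 60 min. Readout: Kinase-Glo. IC50 by 4-parameter fit.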

A further series deals with T5, mTOR (Homo sapiens, UniProt P42345).
T5 construct: purchased Invitrogen Corporation (Carlsbad/CA, USA) PV4753
Put plainly: Biochemical assay for m-TOR by TR-FRET. The conditions noted are these: 8 μM ATP, 400 nM GFP-4EBP1, 0.5 nM mTOR. An outline of the steps: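 Steps: ATP (8 μM final) plus GFP-4EBP1 (400 nM final) combined with mTOR (0.5 nM final), incubated at rt; buffer HEPES pH 7.5 with 10 mM MnCl2, NaCl, EGTA, DTT. Then stopped with EDTA/Tb3+-anti-p4EBP1 pT46 Ab (0.5 nM). Plates read after 15 min.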
A general note: TR-FRET usually uses a lanthanide donor and a delayed reading to cut background.

The next series can be described thus: Solubility at pH 6.8. Type of series: physicochemical. The conditions noted are these: pH 6.8, aqueous buffer, thermodynamic from solid; read-out: solubility. An outline of the steps: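 Solubility was measured at pH 6.8 following the cited Zhou et al. (2007) procedure.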

T2 sequence (O00329 with tags, fused parts or gaps limits assumed): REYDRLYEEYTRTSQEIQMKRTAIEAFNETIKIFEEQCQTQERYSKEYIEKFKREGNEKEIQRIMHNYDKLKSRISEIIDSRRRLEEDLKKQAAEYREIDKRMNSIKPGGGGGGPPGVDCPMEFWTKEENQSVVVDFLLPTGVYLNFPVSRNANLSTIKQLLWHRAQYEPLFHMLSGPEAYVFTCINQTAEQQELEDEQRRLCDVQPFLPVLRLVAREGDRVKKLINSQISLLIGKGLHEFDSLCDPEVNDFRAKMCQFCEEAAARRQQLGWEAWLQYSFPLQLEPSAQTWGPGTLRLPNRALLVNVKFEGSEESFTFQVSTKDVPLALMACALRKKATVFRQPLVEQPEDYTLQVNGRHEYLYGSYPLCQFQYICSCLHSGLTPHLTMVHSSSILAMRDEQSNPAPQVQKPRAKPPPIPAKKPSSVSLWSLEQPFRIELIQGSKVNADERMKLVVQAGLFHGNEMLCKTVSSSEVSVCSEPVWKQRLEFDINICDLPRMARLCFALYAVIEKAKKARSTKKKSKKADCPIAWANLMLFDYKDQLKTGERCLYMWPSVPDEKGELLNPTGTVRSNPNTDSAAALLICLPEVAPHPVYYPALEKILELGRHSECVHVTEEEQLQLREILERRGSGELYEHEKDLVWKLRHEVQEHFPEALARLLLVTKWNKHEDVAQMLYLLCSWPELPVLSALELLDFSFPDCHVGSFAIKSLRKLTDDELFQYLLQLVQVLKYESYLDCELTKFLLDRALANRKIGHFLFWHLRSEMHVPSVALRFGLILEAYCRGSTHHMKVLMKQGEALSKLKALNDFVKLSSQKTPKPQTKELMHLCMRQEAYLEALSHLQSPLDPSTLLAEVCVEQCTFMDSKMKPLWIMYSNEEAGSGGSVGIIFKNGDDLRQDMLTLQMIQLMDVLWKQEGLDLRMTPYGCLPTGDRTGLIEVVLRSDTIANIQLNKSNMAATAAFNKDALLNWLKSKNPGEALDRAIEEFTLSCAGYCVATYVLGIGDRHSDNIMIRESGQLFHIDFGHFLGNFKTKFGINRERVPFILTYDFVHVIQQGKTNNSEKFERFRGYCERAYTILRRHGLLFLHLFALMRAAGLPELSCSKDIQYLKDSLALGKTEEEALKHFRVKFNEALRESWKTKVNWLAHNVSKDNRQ
T1 sequence (P42336 with tags, fused parts or gaps limits assumed): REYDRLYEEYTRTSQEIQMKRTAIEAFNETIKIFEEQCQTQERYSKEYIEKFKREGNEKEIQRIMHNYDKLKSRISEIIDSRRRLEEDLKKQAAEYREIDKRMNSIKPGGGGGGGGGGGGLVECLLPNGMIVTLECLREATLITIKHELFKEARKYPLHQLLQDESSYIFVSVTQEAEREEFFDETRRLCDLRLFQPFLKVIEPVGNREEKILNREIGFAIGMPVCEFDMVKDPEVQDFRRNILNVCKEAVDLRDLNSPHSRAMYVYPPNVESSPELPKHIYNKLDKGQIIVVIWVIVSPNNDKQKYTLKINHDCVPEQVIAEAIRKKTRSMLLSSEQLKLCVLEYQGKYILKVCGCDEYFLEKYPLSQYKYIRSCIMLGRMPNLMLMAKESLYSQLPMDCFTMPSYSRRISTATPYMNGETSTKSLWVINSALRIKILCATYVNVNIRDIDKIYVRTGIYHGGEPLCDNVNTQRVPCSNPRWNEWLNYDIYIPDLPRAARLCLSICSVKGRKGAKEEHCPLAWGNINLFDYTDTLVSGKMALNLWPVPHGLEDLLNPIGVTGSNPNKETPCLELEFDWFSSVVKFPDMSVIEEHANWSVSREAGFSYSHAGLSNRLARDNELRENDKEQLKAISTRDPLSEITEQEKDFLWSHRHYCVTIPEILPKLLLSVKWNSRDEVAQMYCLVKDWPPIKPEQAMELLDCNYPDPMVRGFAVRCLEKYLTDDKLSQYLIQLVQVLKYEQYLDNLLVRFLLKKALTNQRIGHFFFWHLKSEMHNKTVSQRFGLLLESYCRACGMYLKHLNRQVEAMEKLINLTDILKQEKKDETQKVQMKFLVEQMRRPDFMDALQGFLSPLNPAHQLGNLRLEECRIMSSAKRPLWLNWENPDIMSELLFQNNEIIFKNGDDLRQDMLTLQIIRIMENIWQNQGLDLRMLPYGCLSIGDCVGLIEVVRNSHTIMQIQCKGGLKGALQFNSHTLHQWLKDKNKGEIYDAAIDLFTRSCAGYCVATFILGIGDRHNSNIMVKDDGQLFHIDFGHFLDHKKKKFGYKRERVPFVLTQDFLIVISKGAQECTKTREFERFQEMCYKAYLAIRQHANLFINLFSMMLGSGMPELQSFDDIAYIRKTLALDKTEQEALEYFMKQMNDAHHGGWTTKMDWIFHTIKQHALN

With `CCOc1ccc(-c2ccc3ncc4c(c3c2)n(-c2cc(C(F)(F)F)nn2C)c(=O)n4C)cn1` [Example 3.2, 8-(6-Ethoxy-pyridin-3-yl)-3-methyl-1-(2-methyl-5-trifluoromethyl-2H-pyrazol-3-yl)-1,3-dihydro-imidazo[4,5-c]quinolin-2-one], the IC50 on PI3K alpha stood at 78 nM; at PI3K delta, 394 nM; at PI3K gamma, 559 nM; in series [1], 120 nM; in [2], 138 nM; in [3], 473 nM.

Consider `CCn1nccc1-n1c(=O)n(C)c2cnc3ccc(-c4ccc(OC)nc4)cc3c21` [Example 2.6, 1-(2-Ethyl-2H-pyrazol-3-yl)-8-(6-methoxy-pyridin-3-yl)-3-methyl-1,3-dihydro-imidazo[4,5-c]quinolin-2-one], for which the IC50 at PI3K alpha was found to be 146 nM; on PI3K beta, 612 nM; on PI3K delta, 85 nM; at PI3K gamma it was 788 nM; at mTOR, 162 nM; in [1], 141 nM. In addition, the IC50 in series [2] was 136 nM; in series [3], 219 nM.

Consider `CCOc1ccc(-c2ccc3ncc4c(c3c2)n(-c2c(C)nn(CCOC)c2C)c(=O)n4C)cn1` [Example 3.11, 8-(6-Ethoxy-pyridin-3-yl)-1-[1-(2-methoxy-ethyl)-3,5-dimethyl-1H-pyrazol-4-yl]-3-methyl-1,3-dihydro-imidazo[4,5-c]quinolin-2-one], for which the solubility in the series “Solubility at pH 6.8” was above 473 µg/mL. For the same compound, the IC50 at PI3K alpha is 207 nM; at PI3K beta, 473 nM; at PI3K delta it was 228 nM; in [1], 237 nM; in series [2], 510 nM; in series [3], 772 nM.

In the case of `COc1cc(-c2ccc3ncc4c(c3c2)n(-c2c(C)nn(C)c2C)c(=O)n4C)ccc1O` [Example 31, 8-(4-Hydroxy-3-methoxy-phenyl)-3-methyl-1-(1,3,5-trimethyl-1H-pyrazol-4-yl)-1,3-dihydro-imidazo[4,5-c]quinolin-2-one], the IC50 on PI3K alpha was determined as 29 nM; at PI3K beta it was 67 nM; on PI3K delta, 30 nM; at PI3K gamma it was 118 nM; on mTOR, 177 nM; in [1], 29 nM. Further, the IC50 in series [2] stood at 49 nM; in series [3], 64 nM.

As for `COc1ncc(-c2ccc3ncc4c(c3c2)n(-c2cn(C)nc2C)c(=O)n4C)cc1C(=O)O` [Example 124, 5-[1-(1,3-Dimethyl-1H-pyrazol-4-yl)-3-methyl-2-oxo-2,3-dihydro-1H-imidazo[4,5-c]quinolin-8-yl]-2-methoxy-nicotinic acid], the IC50 was determined as 37 nM at PI3K alpha; 83 nM on PI3K beta; 20 nM on PI3K delta; 118 nM at PI3K gamma; 53 nM at mTOR.

Take `Cc1nn(C)cc1-n1c(=O)n(C)c2cnc3ccc(-c4cncc(N)c4)cc3c21` [Example 45]: the IC50 on PI3K gamma was 283 nM.

On to `COCCn1nc(C)c(-n2c(=O)n(C)c3cnc4ccc(-c5cncc(NC(C)C)c5)cc4c32)c1C` [Example 177.2, 8-(5-Isopropylamino-pyridin-3-yl)-1-[1-(2-methoxy-ethyl)-3,5-dimethyl-1H-pyrazol-4-yl]-3-methyl-1,3-dihydro-imidazo[4,5-c]quinolin-2-one], for which, in “Solubility at pH 6.8”, the solubility worked out at 479 µg/mL (≈ 986 µM). Besides, the concentration for half-maximal inhibition (IC50) on PI3K alpha was determined as 70 nM; on PI3K beta, 327 nM; on PI3K delta, 70 nM; in [1], 124 nM; in series [2], 494 nM; in series [3], 559 nM.

Turning to `Cc1nn(C)cc1-n1c(=O)n(C)c2cnc3ccc(-c4ccc(OCCOCc5ccccc5)nc4)cc3c21` [Example 19, 8-[6-(2-Benzyloxy-ethoxy)-pyridin-3-yl]-1-(1,3-dimethyl-1H-pyrazol-4-yl)-3-methyl-1,3-dihydro-imidazo[4,5-c]quinolin-2-one], the IC50 is 482 nM on PI3K alpha, 468 nM at PI3K delta and 971 nM on PI3K gamma.

With `CCOc1cc(-c2ccc3ncc4c(c3c2)n(-c2c(C)nn(CCOC)c2C)c(=O)n4C)cnc1C` [Example 85.2, 8-(5-Ethoxy-6-methyl-pyridin-3-yl)-1-[1-(2-methoxy-ethyl)-3,5-dimethyl-1H-pyrazol-4-yl]-3-methyl-1,3-dihydro-imidazo[4,5-c]quinolin-2-one], the solubility in “Solubility at pH 6.8” was above 487 µg/mL. Moreover, the IC50 came to 46 nM on PI3K alpha; 139 nM on PI3K beta; 57 nM at PI3K delta; 187 nM in [1]; 516 nM in [2]; 224 nM in [3].

Regarding `COc1ccc(-c2ccc3ncc4c(c3c2)n(-c2cn(CC(=O)O)nc2C)c(=O)n4C)cn1` [Example 101, {4-[8-(6-Methoxy-pyridin-3-yl)-3-methyl-2-oxo-2,3-dihydro-imidazo[4,5-c]quinolin-1-yl]-3-methyl-pyrazol-1-yl}-acetic acid], the IC50 on PI3K alpha was 5 nM; on PI3K beta, 23 nM; at PI3K delta, 15 nM; at PI3K gamma, 138 nM; on mTOR, below 3 nM.

The IC50 is the concentration that inhibits the measured activity by half. The term solubility denotes how much of the substance goes into solution per volume.
